The supplement of paper PMC10307832

Assays:
Experiment in all cases: relative viability (nuclei count vs DMSO), 5 days (fraction); higher = more cells survive
Bexarotene = compound: C=C(c1ccc(C(=O)O)cc1)c1cc2c(cc1C)C(C)(C)CCC2(C)C [Bexarotene]
Method in brief: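 Nuclei counted with MetaXpress define viability as the ratio of treated to vehicle wells, given as a median across plates. The lung cancer cell lines were in 1536-well plates, pinned with five √10-spaced library-drug doses and imaged at 4× after 5 days and Hoechst staining. Plates passed with control CV below 25% and at least one doubling.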

Bexarotene + Trametinib = compound: C=C(c1ccc(C(=O)O)cc1)c1cc2c(cc1C)C(C)(C)CCC2(C)C [Bexarotene] + CC(=O)Nc1cccc(-n2c(=O)n(C3CC3)c(=O)c3c(Nc4ccc(I)cc4F)n(C)c(=O)c(C)c32)c1 [Trametinib] (partner 0.02 µM)
Method in brief: (§1)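 One day after seeding in 1536-well plates, lung cancer cell lines were dosed by pin tool. Dosing was either single-drug or a fixed anchor-drug dose plus five library-drug doses (not always all listed) in √10 steps. After 5 days, nuclei were stained in one fix-and-stain step and counted on 4× images, and relative viability is the nuclei count of treated wells over that of vehicle wells, given as the median of duplicate plates.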

Bexarotene + Palbociclib = compound: C=C(c1ccc(C(=O)O)cc1)c1cc2c(cc1C)C(C)(C)CCC2(C)C [Bexarotene] + CC(=O)c1c(C)c2cnc(Nc3ccc(N4CCNCC4)cn3)nc2n(C2CCCC2)c1=O [Palbociclib] (partner 0.5 µM)
Method in brief: as §1

Bexarotene + Luminespib = compound: C=C(c1ccc(C(=O)O)cc1)c1cc2c(cc1C)C(C)(C)CCC2(C)C [Bexarotene] + CCNC(=O)c1noc(-c2cc(C(C)C)c(O)cc2O)c1-c1ccc(CN2CCOCC2)cc1 [Luminespib] (partner 0.01 µM)
Method in brief: as §1

Bexarotene + OSI-027 = compound: C=C(c1ccc(C(=O)O)cc1)c1cc2c(cc1C)C(C)(C)CCC2(C)C [Bexarotene] + COc1cccc2cc(-c3nc([C@H]4CC[C@H](C(=O)O)CC4)n4ncnc(N)c34)[nH]c12 [OSI-027] (partner 0.5 µM)
Method in brief: as §1

Bexarotene + Tozasertib = compound: C=C(c1ccc(C(=O)O)cc1)c1cc2c(cc1C)C(C)(C)CCC2(C)C [Bexarotene] + Cc1cc(Nc2cc(N3CCN(C)CC3)nc(Sc3ccc(NC(=O)C4CC4)cc3)n2)n[nH]1 [Tozasertib] (partner 0.1 µM)
Method in brief: as §1

Bexarotene + Dasatinib = compound: C=C(c1ccc(C(=O)O)cc1)c1cc2c(cc1C)C(C)(C)CCC2(C)C [Bexarotene] + Cc1nc(Nc2ncc(C(=O)Nc3c(C)cccc3Cl)s2)cc(N2CCN(CCO)CC2)n1 [Dasatinib] (partner 0.075 µM)
Method in brief: as §1

Bexarotene + Phenformin = compound: C=C(c1ccc(C(=O)O)cc1)c1cc2c(cc1C)C(C)(C)CCC2(C)C [Bexarotene] + N=C(N)NC(=N)NCCc1ccccc1 [Phenformin] (partner 250 µM)
Method in brief: as §1

Bexarotene + AZD7762 = compound: C=C(c1ccc(C(=O)O)cc1)c1cc2c(cc1C)C(C)(C)CCC2(C)C [Bexarotene] + NC(=O)Nc1cc(-c2cccc(F)c2)sc1C(=O)N[C@H]1CCCNC1 [AZD7762] (partner 0.2 µM)
Method in brief: as §1

Bexarotene + Pemetrexed = compound: C=C(c1ccc(C(=O)O)cc1)c1cc2c(cc1C)C(C)(C)CCC2(C)C [Bexarotene] + Nc1nc2[nH]cc(CCc3ccc(C(=O)N[C@@H](CCC(=O)O)C(=O)O)cc3)c2c(=O)[nH]1 [Pemetrexed] (partner 0.2 µM)
Method in brief: as §1

Bexarotene + Decitabine = compound: C=C(c1ccc(C(=O)O)cc1)c1cc2c(cc1C)C(C)(C)CCC2(C)C [Bexarotene] + Nc1ncn([C@H]2C[C@H](O)[C@@H](CO)O2)c(=O)n1 [Decitabine] (partner 2 µM)
Method in brief: as §1

Bexarotene + Vorinostat = compound: C=C(c1ccc(C(=O)O)cc1)c1cc2c(cc1C)C(C)(C)CCC2(C)C [Bexarotene] + O=C(CCCCCCC(=O)Nc1ccccc1)NO [Vorinostat] (partner 1 µM)
Method in brief: as §1

Bexarotene + Olaparib = compound: C=C(c1ccc(C(=O)O)cc1)c1cc2c(cc1C)C(C)(C)CCC2(C)C [Bexarotene] + O=C(c1cc(Cc2n[nH]c(=O)c3ccccc23)ccc1F)N1CCN(C(=O)C2CC2)CC1 [Olaparib] (partner 8 µM)
Method in brief: as §1

Bexarotene + Foretinib = compound: C=C(c1ccc(C(=O)O)cc1)c1cc2c(cc1C)C(C)(C)CCC2(C)C [Bexarotene] + COc1cc2c(Oc3ccc(NC(=O)C4(C(=O)Nc5ccc(F)cc5)CC4)cc3F)ccnc2cc1OCCCN1CCOCC1 [Foretinib] (partner 0.25 µM)
Method in brief: as §1

NCI-H522 showed a relative viability (Bexarotene; 0.08 µM) of 1.14, a relative viability (Bexarotene; 0.253 µM) of 0.872 and a relative viability (Bexarotene; 0.8 µM) of 0.957. The relative viability (Bexarotene; 2.53 µM) was 0.816, the relative viability (Bexarotene; 8 µM) was 1.02 and the relative viability (Bexarotene + Trametinib; first compound 0.08 µM) was 0.736. The relative viability (Bexarotene + Trametinib; first compound 0.253 µM) was 0.805, the relative viability (Bexarotene + Trametinib; first compound 0.8 µM) was 0.74 and the relative viability (Bexarotene + Trametinib; first compound 2.53 µM) was 0.797. It also gave a relative viability (Bexarotene + Trametinib; first compound 8 µM) of 0.736, a relative viability (Bexarotene + Palbociclib; first compound 0.08 µM) of 1.04 and a relative viability (Bexarotene + Palbociclib; first compound 0.253 µM) of 0.887. For the same cell line, the relative viability (Bexarotene + Palbociclib; first compound 0.8 µM) was 1.07, the relative viability (Bexarotene + Palbociclib; first compound 2.53 µM) was 1.14 and the relative viability (Bexarotene + Palbociclib; first compound 8 µM) was 1.04. For the same cell line, the relative viability (Bexarotene + Luminespib; first compound 0.08 µM) was 1.24, the relative viability (Bexarotene + Luminespib; first compound 0.253 µM) was 1.09 and the relative viability (Bexarotene + Luminespib; first compound 0.8 µM) was 1.17. It also gave a relative viability (Bexarotene + Luminespib; first compound 2.53 µM) of 1.23, a relative viability (Bexarotene + Luminespib; first compound 8 µM) of 0.899 and a relative viability (Bexarotene + OSI-027; first compound 0.08 µM) of 0.722. It also gave a relative viability (Bexarotene + OSI-027; first compound 0.253 µM) of 0.721, a relative viability (Bexarotene + OSI-027; first compound 0.8 µM) of 0.677 and a relative viability (Bexarotene + OSI-027; first compound 2.53 µM) of 0.706. It also gave a relative viability (Bexarotene + OSI-027; first compound 8 µM) of 0.705, a relative viability (Bexarotene + Tozasertib; first compound 0.08 µM) of 0.551 and a relative viability (Bexarotene + Tozasertib; first compound 0.253 µM) of 0.523. The relative viability (Bexarotene + Tozasertib; first compound 0.8 µM) was 0.562, the relative viability (Bexarotene + Tozasertib; first compound 2.53 µM) was 0.506 and the relative viability (Bexarotene + Tozasertib; first compound 8 µM) was 0.634. The relative viability (Bexarotene + Dasatinib; first compound 0.08 µM) was 0.939, the relative viability (Bexarotene + Dasatinib; first compound 0.253 µM) was 0.874 and the relative viability (Bexarotene + Dasatinib; first compound 0.8 µM) was 0.957. The relative viability (Bexarotene + Dasatinib; first compound 2.53 µM) was 0.842, the relative viability (Bexarotene + Dasatinib; first compound 8 µM) was 0.93 and the relative viability (Bexarotene + Phenformin; first compound 0.08 µM) was 0.612. The relative viability (Bexarotene + Phenformin; first compound 0.253 µM) was 0.521, the relative viability (Bexarotene + Phenformin; first compound 0.8 µM) was 0.591 and the relative viability (Bexarotene + Phenformin; first compound 2.53 µM) was 0.518. The relative viability (Bexarotene + Phenformin; first compound 8 µM) was 0.626, the relative viability (Bexarotene + AZD7762; first compound 0.08 µM) was 0.788 and the relative viability (Bexarotene + AZD7762; first compound 0.253 µM) was 0.949. It also gave a relative viability (Bexarotene + AZD7762; first compound 0.8 µM) of 0.734, a relative viability (Bexarotene + AZD7762; first compound 2.53 µM) of 0.697 and a relative viability (Bexarotene + AZD7762; first compound 8 µM) of 0.822. It also gave a relative viability (Bexarotene + Pemetrexed; first compound 0.08 µM) of 1.01, a relative viability (Bexarotene + Pemetrexed; first compound 0.253 µM) of 1.18 and a relative viability (Bexarotene + Pemetrexed; first compound 0.8 µM) of 1.11. The relative viability (Bexarotene + Pemetrexed; first compound 2.53 µM) was 0.855, the relative viability (Bexarotene + Pemetrexed; first compound 8 µM) was 0.862 and the relative viability (Bexarotene + Decitabine; first compound 0.08 µM) was 0.642. It also gave a relative viability (Bexarotene + Decitabine; first compound 0.253 µM) of 0.666, a relative viability (Bexarotene + Decitabine; first compound 0.8 µM) of 0.653 and a relative viability (Bexarotene + Decitabine; first compound 2.53 µM) of 0.673. It also gave a relative viability (Bexarotene + Decitabine; first compound 8 µM) of 0.609, a relative viability (Bexarotene + Vorinostat; first compound 0.08 µM) of 0.961 and a relative viability (Bexarotene + Vorinostat; first compound 0.253 µM) of 0.862. For the same cell line, the relative viability (Bexarotene + Vorinostat; first compound 0.8 µM) was 0.977, the relative viability (Bexarotene + Vorinostat; first compound 2.53 µM) was 0.94 and the relative viability (Bexarotene + Vorinostat; first compound 8 µM) was 1.01. For the same cell line, the relative viability (Bexarotene + Olaparib; first compound 0.08 µM) was 0.666, the relative viability (Bexarotene + Olaparib; first compound 0.253 µM) was 0.66 and the relative viability (Bexarotene + Olaparib; first compound 0.8 µM) was 0.635. It also gave a relative viability (Bexarotene + Olaparib; first compound 2.53 µM) of 0.564 and a relative viability (Bexarotene + Olaparib; first compound 8 µM) of 0.675.

In the case of NCI-H1623, the relative viability (Bexarotene; 0.08 µM) is reported as 0.751, the relative viability (Bexarotene; 0.253 µM) is reported as 0.849 and the relative viability (Bexarotene; 0.8 µM) is reported as 0.815. It also gave a relative viability (Bexarotene; 2.53 µM) of 0.854, a relative viability (Bexarotene; 8 µM) of 0.806 and a relative viability (Bexarotene + Luminespib; first compound 0.08 µM) of 0.459. The relative viability (Bexarotene + Luminespib; first compound 0.253 µM) was 0.476, the relative viability (Bexarotene + Luminespib; first compound 0.8 µM) was 0.481 and the relative viability (Bexarotene + Luminespib; first compound 2.53 µM) was 0.441. The relative viability (Bexarotene + Luminespib; first compound 8 µM) was 0.543, the relative viability (Bexarotene + Foretinib; first compound 0.08 µM) was 0.836 and the relative viability (Bexarotene + Foretinib; first compound 0.253 µM) was 0.813. For the same cell line, the relative viability (Bexarotene + Foretinib; first compound 0.8 µM) was 0.805, the relative viability (Bexarotene + Foretinib; first compound 2.53 µM) was 0.848 and the relative viability (Bexarotene + Foretinib; first compound 8 µM) was 0.773. For the same cell line, the relative viability (Bexarotene + OSI-027; first compound 0.08 µM) was 0.439, the relative viability (Bexarotene + OSI-027; first compound 0.253 µM) was 0.441 and the relative viability (Bexarotene + OSI-027; first compound 0.8 µM) was 0.363. The relative viability (Bexarotene + OSI-027; first compound 2.53 µM) was 0.407, the relative viability (Bexarotene + OSI-027; first compound 8 µM) was 0.334 and the relative viability (Bexarotene + Tozasertib; first compound 0.08 µM) was 0.452. The relative viability (Bexarotene + Tozasertib; first compound 0.253 µM) was 0.431, the relative viability (Bexarotene + Tozasertib; first compound 0.8 µM) was 0.333 and the relative viability (Bexarotene + Tozasertib; first compound 2.53 µM) was 0.424. It also gave a relative viability (Bexarotene + Tozasertib; first compound 8 µM) of 0.416, a relative viability (Bexarotene + Dasatinib; first compound 0.08 µM) of 0.587 and a relative viability (Bexarotene + Dasatinib; first compound 0.253 µM) of 0.501. It also gave a relative viability (Bexarotene + Dasatinib; first compound 0.8 µM) of 0.568, a relative viability (Bexarotene + Dasatinib; first compound 2.53 µM) of 0.579 and a relative viability (Bexarotene + Dasatinib; first compound 8 µM) of 0.531. For the same cell line, the relative viability (Bexarotene + Phenformin; first compound 0.08 µM) was 0.661, the relative viability (Bexarotene + Phenformin; first compound 0.253 µM) was 0.598 and the relative viability (Bexarotene + Phenformin; first compound 0.8 µM) was 0.528. The relative viability (Bexarotene + Phenformin; first compound 2.53 µM) was 0.612 and the relative viability (Bexarotene + Phenformin; first compound 8 µM) was 0.504.
